Measured values taken from patent publication US9822091B2, “Method for producing ellagic acid composition” (KAO CORPORATION, priority 2013, dated 2017).

Legend:
[1] = Evaluation of solubility: free ellagic acid dissolved in water from the dried ellagic acid composition; format: physicochemical
Method: (§1) Free ellagic acid was quantified by a gradient method using a high-performance liquid chromatograph manufactured by Hitachi, Ltd. with a column Cadenza CD-C18 (4.6 mmφ×150 mm, 3 μm) manufactured by Imtakt Corporation at a column temperature of 40° C. A 0.05 mol/L aqueous solution of acetic acid was used as a mobile phase solution A, and acetonitrile was used as a mobile phase solution B, respectively, and they were delivered at 1.0 mL/min.
(§2) The sample injection volume was 10 μL, and quantification was carried out based on an absorbance at a wavelength of 254 nm.
The solubility of free ellagic acid in water in an ellagic acid composition after drying was determined by: adding the ellagic acid composition to distilled water so that the amount of solids was one in an aqueous solution or a suspension before drying; shaking the mixture at 25° C. for 5 minutes; filtering the resultant with a cellulose acetate membrane filter having a pore size of 0.2 μm; and measuring the concentration of ellagic acid dissolved therein.
Solubilization ratio (%) of free ellagic acid=[(Mass of free ellagic acid dissolved in water or aqueous medium)/(Mass of free ellagic acid in material for heat treatment)]×100 […]

[2] = Free ellagic acid dissolved in the aqueous medium of the heat-treated solution (HPLC quantification); format: physicochemical
Method: as §1, §2
Solubilization ratio (%) of free ellagic acid=[(Mass of free ellagic acid dissolved in water or aqueous medium)/(Mass of free ellagic acid in material for heat treatment)]×100
The solution in the slurry supply tank was fed to a stainless-steel flow reactor having an inner volume of 100 mL (manufactured by Nitto Koatsu Co., Ltd.) at 100 mL/min, and was subjected to heat treatment at 110° C. (mean residence time: 1 minute). The pressure was adjusted to 0.3 MPa (gauge pressure) with an outlet valve. […] The cooling rate determined from the time of cooling from 110° C. to 90° C. was 7.88° C./s. A part of the heat-treated solution was sampled, and the amount of free ellagic acid dissolved in the aqueous medium was measured to determine a solubilization ratio.

Solubilization ratio ([1]; 5 min): 6%
Concentration of free ellagic acid dissolved in water (25° C.) ([1]; composition powder after freeze or spray drying, redissolved in distilled water, shaken 5 minutes at 25° C., 0.2 μm filter): 5000 ng/mL
Solubilization ratio [2]: 8%
Concentration of free ellagic acid dissolved in aqueous medium (25° C.) ([2]; heat-treated solution before drying, 25° C.): 6000 ng/mL
SMILES: O=c1oc2c(O)c(O)cc3c(=O)oc4c(O)c(O)cc1c4c23 [Comparative Example 1, ellagic acid dihydrate]
